{
  "source": "paper PMC11599114",
  "about": "(Viruses, 2024)",
  "origin": "cited, not measured here",
  "tested_on": "influenza A virus(oseltamivir-resistant strain)",
  "set-up": "method as in ref 30447229",
  "conditions": "MDCK",
  "data": [
    {"sequence": "KFFRKKSVKK [DRAVPe01822]", "values": [
      {"measurement": "EC50", "result": "18.9 ± 7", "unit": "µM"}
    ]}
  ]
}
